# Earlier results as cited in patent publication US11246476B2, “Method for visualizing tissue with an ICG dye composition during ablation procedures” (CardioFocus, Inc., priority 2014, dated 2022).
# Legend:
# [1] = in vivo
# [2] = after injection into the patient's arm (e.g., through an IV)
structure (smiles),measurement,setting,value
"CC1(C)C(/C=C/C=C/C=C/C=C2\N(CCCCS(=O)(=O)[O-])c3ccc4ccccc4c3C2(C)C)=[N+](CCCCS(=O)(=O)[O-])c2ccc3ccccc3c21.[Na+] [ICG, Indocyanine green]",route of removal from circulation,[1],removed from circulation exclusively by the liver to bile juice
same,time to travel through the bloodstream to the target tissue,[2],less than 1 minute
same,binding to plasma proteins,plasma proteins,binds tightly to plasma proteins
